Test results taken from patent publication US20240309014A1, “MACROCYCLIC COMPOUNDS AND USES THEREOF” (President and Fellows of Harvard College, priority 2017, published 2024).

Legend:
[1] = tested on: tubulin protein purified from porcine brain; test: Cell-free tubulin polymerization assay; format: biochemical; conditions: final concentrations 0.625-10 μmol/L
Procedure: Tubulin Polymerization Assay kit was purchased from Cytoskeleton, Inc. (Cat.#BKO11P). The kit contained 1 bottle of lyophilized tubulin protein purified from porcine brain, 3 tubes of lyophilized GTP, 2 bottles of lyophilized assay buffer, and 1 bottle of tubulin glycerol buffer. Assay buffer was prepared by dissolving the contents in 10 mL of deionized and sterilized water. This solution contained 80 mmol/L piperazine-N,N′-bis[2-ethanesulfonic acid] sesquisodium salt, 2.0 mmol/L magnesium chloride, 0.5 mmol/L ethylene glycol-bis(2-amino-ethyl ether) N,N,N′,N-tetra-acetic acid, pH 6.9, and 10 μmol/L fluorescent reporter.
The buffer was stored at −70° C. until use. […]
In the tubulin polymerization assay, reaction mixture was prepared by mixing 820 µL of assay buffer, 17.6 μL of GTP stock solution, and 600 μL of tubulin glycerol buffer. […] Fluorescence emission at 460 nm (excitation wavelength at 360 nm) was measured every 2 minutes for 90 minutes using the SpectraMax® M5e microplate reader (Molecular Devices). Tubulin polymerization was followed by fluorescence enhancement due to the incorporation of a fluorescence reporter into microtubules as polymerization occurred. […]

[2] = tested on: human endometrial cancer cell line HEC-108 xenograft; test: HEC-108 endometrial cancer xenograft as monotherapy (FIG. 18); format: in vivo, athymic mice; conditions: 180 μg/kg i.v. Day 1 and Day 8
Procedure: A human endometrial cancer cell line HEC-108, which had been cultured in an E-MEM containing 15% FBS and antibiotics were adjusted to a concentration of 7.14×10^7 cells/mL with medium to prepare a cell suspension. The cell suspension was inoculated in a volume of 150 μL into a subcutaneous part of a right flank of athymic mice (CAnN.Cg-Foxnlnu/CrlCrlj, female, 6 weeks old, Charles River Japan Inc.). Thirteen days after cell inoculation (Day 1), the length and the width of a tumor in each mouse were measured by using an electronic digital caliper (Mitutoyo Corporation), so as to calculate the volume of the tumor in accordance with the following calculation formula: […]
On the basis of TV, the mice were randomly grouped (Day 1). Each group was consisted in six mice. Compound (1) was dissolved in DMSO and a solution was stored in the freezer before use. Compound (1) (180 μg/kg) was diluted in saline and intravenously injected on Day 1 and Day 8.

[3] = tested on: human bladder carcinoma cell line RT4; test: Bladder carcinoma cell line growth inhibition assay, RT4; format: cell-based; conditions: 72 h, 3 days incubation, CellTiter-Glo 2.0
Procedure: In this assay, the growth inhibitory activity of Compound (1) in human bladder carcinoma cell lines RT4, RT112/84, and UM-UC-3 was measured. RT4 and RT112/84 cells were maintained in a RPMI-1640 (FUJIFILM Wako Pure Chemical Corporation, 189-02025) medium containing 10% fetal bovine serum (FBS: SIGMA Life Science, 172012-500ML), and penicillin and streptomycin (FUJIFILM Wako Pure Chemical Corporation, 168-23191) in a 5% CO2 incubator (37° C.). UM-UC-3 cells were maintained in an E-MEM (FUJIFILM Wako Pure Chemical Corporation, 051-07615) medium containing 10% FBS, 1 mM Sodium Pyruvate (FUJIFILM Wako Pure Chemical Corporation, 190-14881), and penicillin and streptomycin in a 5% CO2 incubator (37° C.). To each well of a 96 well plate (Coming, 3904), 90 μL of each cell suspension adjusted to a concentration of 5.55×10^3 cells/mL (RT4 or UM-UC-3) or 3.33×10^4 cells/mL (RT112/84) with the culture medium was added, and the cells were incubated overnight in a 5% CO2 incubator (37° C.). On the next day, 10 μL of Compound (1) in three-fold dilution series suspended in the culture medium was added to each well, and the resultant was incubated for 3 days in a 5% CO2incubator (37° C.). Then, cell viability was determined by CellTiter-Glo® 2.0 Assay (Promega Corporation, G9243) with ARVO-X4 Multimode Plate Reader (Perkin-Elmer, Wellesley, MA). […]

SMILES: C=C1C[C@@H]2CC[C@@]34C[C@H]5O[C@H]6[C@@H](O3)[C@H]3O[C@H](CC[C@@H]3O[C@H]6C5O4)CC(=O)O[C@@H]3[C@@H](C)[C@@H]4O[C@@H]5C[C@]6(C[C@@H]7O[C@]8(C[C@H](C)[C@@H]9O[C@H](CN)[C@H](O)C[C@@H]9O8)C[C@H](C)[C@@H]7O6)O[C@@H]5C[C@@H]4O[C@H]3C[C@H]3O[C@@H](CC[C@@H]1O2)C[C@@H](C)C3=C (stereo in doubt) [Compound (1)]
- effect on tubulin polymerization [1]: inhibited tubulin polymerization in a concentration-dependent manner
- antitumor activity [2]: tumor growth delay
- IC50 [3]: 0.11 nM
